For the data set, the target named is ATP-dependent translocase ABCB1 (Homo sapiens, UniProt P08183). Kind of data set: TP_TRANSPORTER: cell accumulation in GLP4/P-gp cells. Format: functional, cell-based.
Sequence of ATP-dependent translocase ABCB1 (P08183 whole entry): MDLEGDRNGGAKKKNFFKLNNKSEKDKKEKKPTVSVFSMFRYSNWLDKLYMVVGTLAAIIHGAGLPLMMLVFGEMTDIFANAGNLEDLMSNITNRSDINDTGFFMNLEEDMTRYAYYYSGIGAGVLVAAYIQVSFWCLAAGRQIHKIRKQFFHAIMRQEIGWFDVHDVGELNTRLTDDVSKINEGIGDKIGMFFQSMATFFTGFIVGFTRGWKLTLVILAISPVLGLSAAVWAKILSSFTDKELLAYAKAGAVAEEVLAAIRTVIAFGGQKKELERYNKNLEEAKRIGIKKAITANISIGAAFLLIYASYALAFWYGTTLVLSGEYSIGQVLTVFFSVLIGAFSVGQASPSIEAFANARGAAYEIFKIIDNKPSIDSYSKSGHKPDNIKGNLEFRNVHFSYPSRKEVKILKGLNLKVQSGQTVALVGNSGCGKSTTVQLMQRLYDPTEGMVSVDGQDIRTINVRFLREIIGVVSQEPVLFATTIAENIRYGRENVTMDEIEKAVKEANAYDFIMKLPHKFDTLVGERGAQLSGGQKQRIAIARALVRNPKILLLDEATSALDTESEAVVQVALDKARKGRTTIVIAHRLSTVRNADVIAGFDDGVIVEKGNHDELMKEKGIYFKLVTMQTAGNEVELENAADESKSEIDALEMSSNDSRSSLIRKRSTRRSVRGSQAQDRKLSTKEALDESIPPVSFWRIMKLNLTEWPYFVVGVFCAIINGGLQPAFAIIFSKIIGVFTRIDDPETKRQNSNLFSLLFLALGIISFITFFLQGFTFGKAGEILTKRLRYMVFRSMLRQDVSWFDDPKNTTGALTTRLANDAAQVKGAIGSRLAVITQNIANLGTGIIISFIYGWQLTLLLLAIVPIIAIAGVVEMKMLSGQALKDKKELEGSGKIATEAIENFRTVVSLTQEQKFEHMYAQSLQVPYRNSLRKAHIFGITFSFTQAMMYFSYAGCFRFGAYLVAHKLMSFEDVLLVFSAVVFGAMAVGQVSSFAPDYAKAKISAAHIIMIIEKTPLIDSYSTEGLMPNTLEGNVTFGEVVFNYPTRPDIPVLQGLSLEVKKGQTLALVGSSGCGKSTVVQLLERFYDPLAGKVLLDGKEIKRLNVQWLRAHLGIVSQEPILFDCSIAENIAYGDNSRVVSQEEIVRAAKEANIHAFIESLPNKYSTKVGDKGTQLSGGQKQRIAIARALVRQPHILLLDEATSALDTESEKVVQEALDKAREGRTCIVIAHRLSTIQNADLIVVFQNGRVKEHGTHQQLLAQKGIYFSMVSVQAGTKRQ

Take TECHNETIUM TC 99M DISOFENIN: the Activity result was “is not a substrate [-]”.

The record behind these values is ChEMBL document CHEMBL2074033, “In vivo imaging of hepatobiliary transport function mediated by multidrug resistance associated protein and P-glycoprotein” (Cancer Chemother Pharmacol, 2004).
